In experiment [1] the test system is cucumber gray mold fungus (Botrytis cinerea). Briefly: Cucumber gray mold control test (foliar spray on cucumber seedlings). The note with it: in Cucumis sativus, 96 h, read-out: control value.
Experiment [2] has as its system Tomato late blight fungus (Phytophthora infestans). Briefly: whole plant or invertebrate. It counts as in vivo. The conditions noted are these: foliar, 96 h, read-out: control value.
For experiment [3], the system named is wheat leaf rust fungus (Puccinia recondita). As to the kind of experiment: Wheat leaf rust control test (foliar spray on wheat seedlings). In kind it is in vivo. The conditions noted are these: 240 h, 125 ppm active ingredient, sprayed on wheat seedlings (variety Norin 61) before inoculation, 10 days, vs untreated.
Experiment [4] has as its system Apple scab fungus (Venturia inaequalis). As to the kind of experiment: Apple scab control test (foliar spray on apple seedlings). The conditions noted are these: 125 ppm active ingredient, sprayed on apple seedlings (variety Orin) before inoculation, vs untreated. It counts as in vivo. The method, then:
The dilution was sprayed to apple seedlings (variety “Orin”, 3 to 4 leaf stage) grown in clay pots. […] The control value was calculated by the following equation. [formula]

Consider `N=C(N)NCCCCCCCCNC(=N)NCCCCOc1ccc(C2=NCCCN2)cc1` [compound 204], for which the pest or weed control at 125 ppm in experiment [1], in experiment [2] and in experiment [3] was not below 75% each time.
As for `N=C(N)NCCCCCCCNC(=N)NCCOCc1ccc(C2=NCCCN2)cc1` [compound 238], the pest or weed control at 125 ppm in experiment [1], in experiment [3] and in experiment [4] was not below 75% throughout.
On to `N=C(N)NCCCCCCCCNC(=N)NCc1ccc(C2=NCCCN2)cc1` [compound 262], for which the pest or weed control at 125 ppm in experiment [1], in experiment [3] and in experiment [4] was not below 75% in each case.
As for `CN(CCCOc1ccc(C(=N)N)cc1)C(=N)NCCCOc1ccc(C(=N)N)cc1` [compound 72], the pest or weed control at 125 ppm in experiment [1], in experiment [3] and in experiment [4] was not below 75% in each case.
Take `N=C(N)NCCCCCNC(=N)NCCCCOc1ccc(C(=N)N)cc1` [compound 59]: the pest or weed control at 125 ppm in experiment [1], in experiment [3] and in experiment [4] was not below 75% each time.
For `N=C(N)NCCCCCCCNC(=N)NCCCCOc1ccc(C(=N)N)cc1` [compound 16, 4-[4-[[N-(7-guanidinoheptyl)carbamimidoyl]amino]butoxy]benzamidine], the pest or weed control at 125 ppm in experiment [3] was not below 75%.
As for `N=C(N)NCCCCCCCCNC(=N)NCCCCCOc1ccc(C2=NCCCN2)cc1` [compound 248], the pest or weed control at 125 ppm in experiment [1], in experiment [2] and in experiment [3] was not below 75% in each case.
On to `N=C(N)NCCCCCCCCNC(=N)NCCCSc1ccc(C(=N)N)cc1` [compound 198], for which the pest or weed control at 125 ppm in experiment [1], in experiment [2] and in experiment [4] was not below 75% each time.
Consider `N=C(N)NCCCCCCNC(=N)NCCCOc1ccc(C(=N)N)cc1` [compound 134], for which the pest or weed control at 125 ppm in experiment [1], in experiment [2] and in experiment [4] was not below 75% throughout.
On to `N=C(N)NCCCCCCCCn1ccn(CCCCOc2ccc(C3=NCCCN3)cc2)c1=N` [compound 210], for which the pest or weed control at 125 ppm in experiment [1], in experiment [2] and in experiment [4] was not below 75% throughout.
Turning to `N=C(N)c1ccc(OCCCn2ccn(CCCOc3ccc(C(=N)N)cc3Cl)c2=N)c(Cl)c1` [compound 99], the pest or weed control at 125 ppm in experiment [1], in experiment [2] and in experiment [4] was not below 75% throughout.
Regarding `N=C(N)c1ccc(OCCCCn2ccn(CCCCOc3ccc(C(=N)N)cc3)c2=N)cc1` [compound 36, 4-[4-[3-[4-(4-carbamimidoylphenoxy)butyl]-2-imino-imidazol-1-yl]butoxy]benzamidine], the pest or weed control at 125 ppm in experiment [1], in experiment [2] and in experiment [4] was not below 75% in each case.
On to `N=C(N)NCCCCCCCCCNC(=N)NCCCOc1ccc(C2=NCCCN2)cc1` [compound 218], for which the pest or weed control at 125 ppm in experiment [1], in experiment [2] and in experiment [3] was not below 75% in each case.
For the compound `N=C(N)NCCCCCCCNC(=N)NCCOCc1cc(C(=N)N)cs1` [compound 48, 5-[2-[[N-(7-guanidinoheptyl)carbamimidoyl]amino]ethoxymethyl]thiophene-3-carboxamidine], the pest or weed control at 125 ppm in experiment [1], in experiment [3] and in experiment [4] was not below 75% in each case.
As for `N=C(N)c1ccc(OCCCCn2ccn(CCCCOc3ccc(C4=NCCCN4)cc3)c2=N)cc1` [compound 214], the pest or weed control at 125 ppm in experiment [1], in experiment [2] and in experiment [4] was not below 75% in each case.
In the case of `Cc1c(C)n(CCCCOc2ccc(C(=N)N)cc2)c(=N)n1CCCCOc1ccc(C(=N)N)cc1` [compound 105], the pest or weed control at 125 ppm in experiment [1], in experiment [2] and in experiment [4] was not below 75% each time.
As to `N=C(N)NCCCCCCCNC(=N)NCCCCOc1ccc(C2=NCCN2)cc1` [compound 244], the pest or weed control at 125 ppm in experiment [1], in experiment [3] and in experiment [4] was not below 75% each time.
Regarding `N=C(N)c1ccc(OCCCCn2c(=N)n(CCCCOc3ccc(C(=N)N)cc3)c3ccccc32)cc1` [compound 27, 4-[4-[3-[4-(4-carbamimidoylphenoxy)butyl]-2-imino-benzimidazol-1-yl]butoxy]benzamidine], the pest or weed control at 125 ppm in experiment [1], in experiment [2] and in experiment [4] was not below 75% in each case.
With `N=C(N)NCCCCCCCNC(=N)NCCCC#Cc1nc(C(=N)N)cs1` [compound 50, 2-[5-[[N-(7-guanidinoheptyl)carbamimidoyl]amino]pent-1-ynyl]thiazole-4-carboxamidine], the pest or weed control at 125 ppm in experiment [1], in experiment [3] and in experiment [4] was not below 75% in each case.
Consider `N=C(N)NCCCCCCCCNC(=N)NCCCc1cc2cc(C3=NCCCN3)ccc2o1` [compound 260], for which the pest or weed control at 125 ppm in experiment [1], in experiment [2] and in experiment [3] was not below 75% each time.
`N=C(NCC#Cc1ccc(C(=N)N)cc1)NCC#Cc1ccc(C(=N)N)cc1` [compound 155]: the pest or weed control at 125 ppm in experiment [1], in experiment [2] and in experiment [4] was not below 75% throughout.
Regarding `N=C(N)NCCCCCCCCNC(=N)NCCOc1ccc(C(=N)N)cc1` [compound 286], the pest or weed control at 125 ppm in experiment [1] and in experiment [3] was not below 75% each time.
As for `N=C(N)c1ccc(SCCCn2ccn(CCCSc3ccc(C(=N)N)cc3)c2=N)cc1` [compound 181], the pest or weed control at 125 ppm in experiment [1], in experiment [2] and in experiment [4] was not below 75% in each case.
For `N=C(N)NCCCCCCCNC(=N)NCCCOCc1ccc(C2=NCCCN2)cc1` [compound 224], the pest or weed control at 125 ppm in experiment [1], in experiment [2] and in experiment [4] was not below 75% throughout.
As for `N=C(N)c1ccc(OCCCCCn2ccn(CCCCCOc3ccc(C(=N)N)cc3)c2=N)cc1` [compound 88], the pest or weed control at 125 ppm in experiment [1], in experiment [2] and in experiment [4] was not below 75% in each case.
Take `N=C(N)NCCCCCCCCNC(=N)NCC1=CC2C=C(C3=NCCCN3)C=CC2O1` (stereo not drawn) [compound 268]: the pest or weed control at 125 ppm in experiment [1], in experiment [2] and in experiment [3] was not below 75% throughout.
For `N=c1n(CCCOc2ccc(C3=NCCCN3)cc2)ccn1CCCOc1ccc(C2=NCCCN2)cc1` [compound 76], the pest or weed control at 125 ppm in experiment [1], in experiment [2] and in experiment [4] was not below 75% in each case.
Consider `N=C(N)c1ccc(OCCCn2cc(-c3ccccc3)n(CCCOc3ccc(C(=N)N)cc3)c2=N)cc1` [compound 149], for which the pest or weed control at 125 ppm in experiment [1], in experiment [2] and in experiment [4] was not below 75% in each case.
As to `N=C(N)NCCCCCCCNC(=N)NCCOc1ccc(C(=N)N)cc1` [compound 236], the pest or weed control at 125 ppm in experiment [1], in experiment [3] and in experiment [4] was not below 75% each time.
As for `N=C(N)c1ccc(COCCCn2ccn(CCCOc3ccc(C(=N)N)cc3)c2=N)cc1` [compound 159], the pest or weed control at 125 ppm in experiment [1], in experiment [2] and in experiment [4] was not below 75% throughout.
Turning to `CC1(C)CN=C(c2ccc(OCCCCNC(=N)NCCCCCCCCNC(=N)N)cc2)NC1` [compound 258], the pest or weed control at 125 ppm in experiment [1], in experiment [2] and in experiment [3] was not below 75% in each case.
On to `N=C(NCCCc1cc2cc(C(=N)N)ccc2o1)NCCCc1cc2cc(C(=N)N)ccc2o1` [compound 80], for which the pest or weed control at 125 ppm in experiment [1], in experiment [2] and in experiment [4] was not below 75% in each case.
Consider `N=C(N)NCCCCCCCCn1ccn(CCOc2ccc(C(=N)N)cc2)c1=N` [compound 281], for which the pest or weed control at 125 ppm in experiment [1], in experiment [2] and in experiment [3] was not below 75% throughout.
Turning to `CNC(=N)c1ccc(OCCCn2ccn(CCCOc3ccc(C(=N)NC)cc3)c2=N)cc1` [compound 116], the pest or weed control at 125 ppm in experiment [1], in experiment [2] and in experiment [4] was not below 75% each time.
`N=C(NCCCCCc1nc(C(=N)N)cs1)NCCCOc1ccc(C(=N)N)cc1` [compound 91]: the pest or weed control at 125 ppm in experiment [1], in experiment [2] and in experiment [4] was not below 75% throughout.
In the case of `N=C(N)NCCCCCCCCn1ccn(CCCCOc2ccc(C(=N)N)cc2)c1=N` [compound 216], the pest or weed control at 125 ppm in experiment [1], in experiment [2] and in experiment [3] was not below 75% each time.
In the case of `CNCCNC(=N)c1ccc(OCCCn2ccn(CCCOc3ccc(C(=N)N)cc3)c2=N)cc1` [compound 101], the pest or weed control at 125 ppm in experiment [1], in experiment [2] and in experiment [4] was not below 75% in each case.
As to `N=C(N)NCCCCCCCn1ccn(CCCCOc2ccc(C3=NCCCN3)cc2)c1=N` [compound 208], the pest or weed control at 125 ppm in experiment [1], in experiment [2] and in experiment [4] was not below 75% throughout.

The values are drawn from patent US10111437B2, “Substituted guanidines as fungicides” (Nippon Soda Co., Ltd., priority 2015, dated 2018).
